The subject of one series is U-251. The series can be described thus: Antiproliferative activity against human U-251 cells assessed as inhibition of cell growth at 10 uM incubated for 48 hrs by SRB assay relative to control. Further details: scale not given: the % may be the effect or the level left. It is filed as functional.
Another series concerns PC-3. The series can be described thus: Antiproliferative activity against human PC-3 cells assessed as inhibition of cell growth at 10 uM incubated for 48 hrs by SRB assay relative to control. It counts as functional. Further details: scale not given: the % may be the effect or the level left.
Another series concerns K562. The series can be described thus: Antiproliferative activity against human K562 cells assessed as inhibition of cell growth at 10 uM incubated for 48 hrs by SRB assay relative to control. It is filed as functional. Further details: scale not given: the % may be the effect or the level left.
The subject of the next series is HCT-15. Nature of the series: Antiproliferative activity against human HCT-15 cells assessed as inhibition of cell growth at 10 uM incubated for 48 hrs by SRB assay relative to control. It is filed as functional. Further details: scale not given: the % may be the effect or the level left.
A further series relates to MCF7. Nature of the series: Antiproliferative activity against human MCF7 cells assessed as inhibition of cell growth at 10 uM incubated for 48 hrs by SRB assay relative to control. It counts as functional. Further details: scale not given: the % may be the effect or the level left.
Another series concerns SK-LU-1. Nature of the series: Antiproliferative activity against human SK-LU-1 cells assessed as inhibition of cell growth at 10 uM incubated for 48 hrs by SRB assay relative to control. It counts as functional. Further details: scale not given: the % may be the effect or the level left.
Series [1] is described as follows: Antiproliferative activity against African green monkey COS-7 cells assessed as inhibition of cell growth at 10 uM incubated for 48 hrs by SRB assay relative to control. It is filed as toxicity, cell-based. Conditions: chlorocebus aethiops, read-out: Activity.

The results in this text go back to ChEMBL document CHEMBL5143595, “Expanding the structure-activity relationship of cytotoxic diphenyl macrocycles” (Bioorg Med Chem Lett, 2022).

Structures are written as SMILES.

`CCCCCCCCNC(=O)CN1CCCCN(CC(=O)NC(C)(C)C)C(=O)c2cccc(c2)-c2cccc(c2)C1=O`: the Activity with U-251 is 20.5%; in the series with PC-3, 46.5%; in the series with K562 it was 24.4%; with HCT-15, 26.7%; in the series with MCF7, 31.7%; in the series with SK-LU-1, 9.6%. In addition, the inhibition at 48 h, 10 µM in series [1] is 19.7%.
With `CCCCCCCCCCCNC(=O)CN1CCCCN(CC(=O)NC(C)(C)C)C(=O)c2cccc(c2)-c2cccc(c2)C1=O`, the Activity in the series on U-251 is on record as 10.8%; in the series with PC-3, 44.4%; with K562, 42%; in the series with HCT-15, 51%; with MCF7, 5.3%; in the series with SK-LU-1, 23.2%. Besides, the inhibition at 48 h, 10 µM in series [1] amounted to 28.1%.
For the compound `CCCCCCNC(=O)CN1CCCCN(CC(=O)NC(C)(C)C)C(=O)c2cccc(c2)-c2cccc(c2)C1=O`, the Activity came out at 58.5% in the series on U-251; 19.3% with PC-3; 60.1% with K562; 32.4% in the series with HCT-15; 74.9% with SK-LU-1. Moreover, the inhibition at 48 h, 10 µM in series [1] came to 40%.
Regarding `CCCCCCCCCCNC(=O)CN1CCCCN(CC(=O)NC(C)(C)C)C(=O)c2cccc(c2)-c2ccc(O)c(c2)C1=O`, the Activity in the series with U-251 came out at 49.3%; in the series on PC-3, 19.5%; with K562, 55.3%; in the series with HCT-15, 28.6%; in the series with MCF7, 27.1%; with SK-LU-1, 27.7%. Further, the inhibition at 48 h, 10 µM in series [1] turned out to be 41.8%.
With `CCCCCCCCCNC(=O)CN1CCCCN(CC(=O)NC(C)(C)C)C(=O)c2cccc(c2)-c2cccc(c2)C1=O`, the Activity is listed as 16% with U-251; 66.9% with PC-3; 44% with K562; 55.1% with HCT-15; 45.6% in the series with MCF7; 45.3% with SK-LU-1. In addition, the inhibition at 48 h, 10 µM in series [1] is 52.4%.
`CCCCCCCCCCNC(=O)CN1CCCCN(CC(=O)NC(C)(C)C)C(=O)c2cccc(c2)-c2cccc(c2)C1=O`: the Activity with U-251 is 16.1%; in the series on PC-3, 59.9%; in the series on K562, 38%; in the series on HCT-15, 65.5%; in the series on MCF7, 72.1%; in the series on SK-LU-1, 50.4%. Also, the inhibition at 48 h, 10 µM in series [1] is 17.8%.
Regarding `CCCCCCCCCCCCNC(=O)C(c1ccoc1)N1CCCCN(CC(=O)NC(C)(C)C)C(=O)c2cccc(c2)-c2cccc(c2)C1=O` (racemic), the Activity in the series with U-251 was found to be 27.5%; in the series with PC-3 it was 48.9%; with K562, 48.8%; with HCT-15, 34.3%; in the series with MCF7, 66.1%; in the series with SK-LU-1 it was 32.3%. The inhibition at 48 h, 10 µM in series [1] is 27.5%.
Take `CCCCCCCCCCCCNC(=O)C(c1ccc(SC)cc1)N1CCCCN(CC(=O)NC(C)(C)C)C(=O)c2cccc(c2)-c2cccc(c2)C1=O` (racemic): the Activity is reported as 20% in the series on U-251; 28.5% in the series with PC-3; 34.9% in the series on K562; 18.3% in the series with HCT-15; 45% with MCF7; 45.6% in the series with SK-LU-1. Besides, the inhibition at 48 h, 10 µM in series [1] turned out to be 35.5%.
For `CCCCCCCCCCCCNC(=O)C(c1ccc(O)cc1OC)N1CCCCN(CC(=O)NC(C)(C)C)C(=O)c2cccc(c2)-c2cccc(c2)C1=O` (racemic), the Activity with U-251 came to 48.5%; with PC-3, 37.6%; with K562 it was 60.9%; with HCT-15, 27.3%; in the series on MCF7, 38.9%; with SK-LU-1, 45.1%. Moreover, the inhibition at 48 h, 10 µM in series [1] worked out at 26.1%.
With `CCCCCCCCCCCCNC(=O)C(c1ccc([N+](=O)[O-])cc1)N1CCCCN(CC(=O)NC(C)(C)C)C(=O)c2cccc(c2)-c2cccc(c2)C1=O` (racemic), the Activity in the series with U-251 was 34.5%; in the series on PC-3, 17.1%; in the series on K562, 29%; in the series with HCT-15, 22.8%; in the series on MCF7, 31.2%; in the series with SK-LU-1, 45.2%. In addition, the inhibition at 48 h, 10 µM in series [1] came to 17.5%.
`CCCCCCCCCCCCNC(=O)C(c1cc(OC)c(OC)c(OC)c1)N1CCCCN(CC(=O)NC(C)(C)C)C(=O)c2cccc(c2)-c2cccc(c2)C1=O` (racemic): the Activity in the series with U-251 stood at 11.4%; in the series with PC-3, 33.9%; with K562, 24%; in the series on HCT-15, 31.5%; in the series with SK-LU-1, 34.4%. Moreover, the inhibition at 48 h, 10 µM in series [1] amounted to 25.6%.
Turning to `CCCCCCCCCCCCNC(=O)C(c1ccccc1)N1CCCCN(CC(=O)NC(C)(C)C)C(=O)c2cccc(c2)-c2cccc(c2)C1=O` (racemic), the Activity with PC-3 came to 32.6%; with K562 it was 41.3%; with HCT-15 it was 27.7%; in the series on MCF7, 29.5%; in the series on SK-LU-1 it was 28.5%. Further, in series [1], the inhibition at 48 h, 10 µM was 21.1%.
As to `CCCCCCCCCCNC(=O)C(c1ccc(F)cc1)N1CCCCN(CC(=O)NC(C)(C)C)C(=O)c2cccc(c2)-c2cccc(c2)C1=O` (racemic), the Activity with U-251 amounted to 19.3%; in the series on PC-3 it was 15.1%; with K562, 64%; with HCT-15 it was 67.2%; in the series with MCF7, 47.3%; in the series with SK-LU-1, 31.8%. The inhibition at 48 h, 10 µM in series [1] stood at 24.3%.
As to `CCCCCCCCCCCCNC(=O)C(c1ccc(Cl)cc1)N1CCCCN(CC(=O)NC(C)(C)C)C(=O)c2cccc(c2)-c2cccc(c2)C1=O` (racemic), the Activity worked out at 71.3% in the series on U-251; 14.4% in the series on PC-3; 42.6% with K562; 24.3% with HCT-15; 72.2% in the series on MCF7; 52.3% with SK-LU-1. Also, the inhibition at 48 h, 10 µM in series [1] is 42.2%.
With `CCCCCCCCCCCCNC(=O)C(c1ccc(C)cc1)N1CCCCN(CC(=O)NC(C)(C)C)C(=O)c2cccc(c2)-c2cccc(c2)C1=O` (racemic), the Activity in the series on U-251 was determined as 48%; in the series on PC-3 it was 21.1%; in the series on K562, 40.7%; in the series with HCT-15 it was 19.9%; in the series with MCF7 it was 4.8%; in the series with SK-LU-1, 32.4%. Besides, in series [1], the inhibition at 48 h, 10 µM was 34.8%.
For the compound `CCCCCCCCCCCCNC(=O)C(c1ccco1)N1CCCCN(CC(=O)NC(C)(C)C)C(=O)c2cccc(c2)-c2cccc(c2)C1=O` (racemic), the Activity in the series on U-251 amounted to 21.9%; with PC-3, 13.5%; in the series on K562, 19.8%; with HCT-15 it was 26.8%; with MCF7 it was 51.3%; in the series with SK-LU-1, 34.9%. Moreover, in series [1], the inhibition at 48 h, 10 µM turned out to be 35.8%.
As to `CCCCCCCCCCCCNC(=O)C(c1cc(C)ccc1F)N1CCCCN(CC(=O)NC(C)(C)C)C(=O)c2cccc(c2)-c2cccc(c2)C1=O` (racemic), the Activity with U-251 was 15.7%; with PC-3 it was 9.5%; in the series with K562, 29%; in the series with HCT-15 it was 31.7%; in the series with MCF7, 15.2%; with SK-LU-1, 3.1%. In addition, in series [1], the inhibition at 48 h, 10 µM came out at 20.2%.
Turning to `CCCCCCCCCCCCNC(=O)C(c1ccc(OC)cc1)N1CCCCN(CC(=O)NC(C)(C)C)C(=O)c2cccc(c2)-c2cccc(c2)C1=O` (racemic), the Activity is 50.1% with U-251; 46.2% with PC-3; 56.1% in the series on K562; 22% in the series with HCT-15; 23.6% in the series with MCF7; 37.8% in the series with SK-LU-1. The inhibition at 48 h, 10 µM in series [1] turned out to be 33%.
Consider `CCCCCCCCCCCCNC(=O)C(c1ccc(C(F)(F)F)cc1)N1CCCCN(CC(=O)NC(C)(C)C)C(=O)c2cccc(c2)-c2cccc(c2)C1=O` (racemic), for which the Activity with U-251 turned out to be 47.2%; with PC-3, 18.6%; in the series on K562, 100%; in the series on HCT-15, 30.3%; with MCF7 it was 75.3%; in the series with SK-LU-1, 76.5%. Also, the inhibition at 48 h, 10 µM in series [1] was determined as 38%.
`CCCCCCCCCCCCNC(=O)C(c1ccc(OC)cc1C)N1CCCCN(CC(=O)NC(C)(C)C)C(=O)c2cccc(c2)-c2cccc(c2)C1=O` (racemic): the Activity was 23.1% with U-251, 5.2% with K562, 28% in the series on HCT-15 and 29% in the series on SK-LU-1. In addition, the inhibition at 48 h, 10 µM in series [1] came out at 31.3%.
As to `CCCCCCCCCCCCNC(=O)C(c1ccc(F)cc1)N1CCCCN(CC(=O)NC(C)(C)C)C(=O)c2cccc(c2)-c2cccc(c2)C1=O` (racemic), the Activity with U-251 is 76.9%; in the series on PC-3, 21.3%; in the series on K562, 59.6%; in the series with HCT-15 it was 42.9%; in the series on MCF7 it was 41.5%; with SK-LU-1 it was 18.8%. Besides, the inhibition at 48 h, 10 µM in series [1] was 40.8%.
Turning to `CCCCCCCCCCNC(=O)C(c1ccco1)N1CCCCN(CC(=O)NC(C)(C)C)C(=O)c2cccc(c2)-c2cccc(c2)C1=O` (racemic), the Activity turned out to be 25.5% with U-251; 25.8% in the series on PC-3; 28% with K562; 26% in the series on HCT-15; 25.7% in the series on MCF7; 25.3% in the series on SK-LU-1. In addition, the inhibition at 48 h, 10 µM in series [1] was 21.6%.
